Results taken from PMC8839189, “Bis-Amiridines as Acetylcholinesterase and Butyrylcholinesterase Inhibitors: N-Functionalization Determines the Multitarget Anti-Alzheimer’s Activity Profile” (Molecules, 2022).
Several values for one entry are separate records, joined by “and”; a condition that tells them apart may be missing. Identical values can stand only once. Like-named read-outs stand apart in the source and are kept apart here.

Legend:
[1] = Ferric reducing antioxidant power (FRAP) assay; set-up: key: ratio of Trolox to test compound concentration giving same FRAP effect; conditions: Trolox equivalents; compound concentration 20 µM
Description: The ferric reducing antioxidant power (FRAP) assay proposed by Benzie and Strain [106, 107] was modified to be performed in 96-well microplates, as described in detail in [32]. The FRAP reagent contained 2.5 mL of 10 mM TPTZ (2,4,6-tris(2-pyridyl)-s-triazine, Sigma-Aldrich) solution in 40 mM HCl, 2.5 mL of 20 mM FeCl3 (Sigma-Aldrich) in distilled water and 25 mL of 0.3 M acetate buffer (pH 3.6). Aliquots of 10 µL of the tested compound (compounds 3, 5 or reference substance) dissolved in DMSO (0.5 mM) were placed in quadruplicate. Absorbance was measured at the wavelength of 593 nm after 60-min incubation at 37 °C. In each case, Trolox was used as a reference compound to obtain the standard curve and value was calculated with respect to the activity of Trolox and expressed as Trolox equivalents (TE)—the values calculated as the ratio of the concentrations of Trolox and the test compound, resulting in the same effect on ferric reducing activity.

[2] = ABTS radical cation scavenging activity assay; conditions: 1 h incubation; for IC50: ABTS•+ 100 μM; for ABTS•+-Scavenging Activity, TEAC: Trolox equivalent antioxidant capacity
Description: Radical scavenging activity of the compounds was assessed using the ABTS radical cation (ABTS^•+) decolorization assay with modifications, described in detail in [30, 32]. ABTS (2,2′-azino-bis-(3-ethylbenzothiazoline-6-sulfonic acid)) was purchased from Tokyo Chemical Industry Co., Ltd. (Tokyo, Japan), potassium persulfate (dipotassium peroxodisulfate), Trolox (6-hydroxy-2,5,7,8-tetramethylchroman-2-carboxylic acid), HPLC-grade ethanol, and DMSO were obtained from Sigma-Aldrich. All tested compounds were dissolved in DMSO.
The reaction was monitored for 1 h with an interval of 1–10 min. Data are given for 1 h of incubation of compounds with ABTS^•+ (100 μM final concentration). The reduction in absorbance was measured spectrophotometrically at 734 nm using xMark UV/VIS microplate spectrophotometer (Bio-Rad, Hercules, CA, USA). Ethanol blanks were run in each assay. Values were obtained from three replicates of each sample and three independent experiments. Standard antioxidant Trolox was used as a reference compound. Trolox equivalent antioxidant capacity (TEAC) values were determined as the ratio between the slopes obtained from the linear correlation of the ABTS radical absorbance with the concentrations of tested compounds and Trolox.

[3] = test system: porcine liver CES; experiment: CES inhibition, 4-NPA substrate; format: biochemical; conditions: compound concentration 20 µM
[4] = biological target: T1, human erythrocyte AChE (Homo sapiens, UniProt P22303); experiment: biochemical
T1 sequence (P22303 other isoform, or with tags, fused parts or gaps): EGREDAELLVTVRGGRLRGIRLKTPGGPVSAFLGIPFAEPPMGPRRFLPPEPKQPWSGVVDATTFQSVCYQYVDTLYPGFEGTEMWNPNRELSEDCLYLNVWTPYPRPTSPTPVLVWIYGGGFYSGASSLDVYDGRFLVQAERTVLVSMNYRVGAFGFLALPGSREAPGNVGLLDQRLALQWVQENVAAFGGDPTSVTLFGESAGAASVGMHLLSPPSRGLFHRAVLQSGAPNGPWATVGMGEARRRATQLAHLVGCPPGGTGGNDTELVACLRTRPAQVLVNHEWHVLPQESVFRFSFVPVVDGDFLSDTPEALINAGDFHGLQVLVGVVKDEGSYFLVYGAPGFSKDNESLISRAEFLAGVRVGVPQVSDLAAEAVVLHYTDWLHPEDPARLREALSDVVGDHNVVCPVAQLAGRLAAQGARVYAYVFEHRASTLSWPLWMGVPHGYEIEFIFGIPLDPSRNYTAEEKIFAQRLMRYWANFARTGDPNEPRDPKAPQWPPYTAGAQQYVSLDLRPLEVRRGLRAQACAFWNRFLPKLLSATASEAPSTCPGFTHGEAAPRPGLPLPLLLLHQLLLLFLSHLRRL

[5] = biological target: T2, EeAChE PAS (Electrophorus electricus, UniProt O42275); experiment: Propidium iodide displacement from the PAS of EeAChE; format: binding, Electric eel; conditions: compound concentration 20 µM
T2 construct: purchased Sigma-Aldrich type VI-S
T2 sequence (O42275 24-633): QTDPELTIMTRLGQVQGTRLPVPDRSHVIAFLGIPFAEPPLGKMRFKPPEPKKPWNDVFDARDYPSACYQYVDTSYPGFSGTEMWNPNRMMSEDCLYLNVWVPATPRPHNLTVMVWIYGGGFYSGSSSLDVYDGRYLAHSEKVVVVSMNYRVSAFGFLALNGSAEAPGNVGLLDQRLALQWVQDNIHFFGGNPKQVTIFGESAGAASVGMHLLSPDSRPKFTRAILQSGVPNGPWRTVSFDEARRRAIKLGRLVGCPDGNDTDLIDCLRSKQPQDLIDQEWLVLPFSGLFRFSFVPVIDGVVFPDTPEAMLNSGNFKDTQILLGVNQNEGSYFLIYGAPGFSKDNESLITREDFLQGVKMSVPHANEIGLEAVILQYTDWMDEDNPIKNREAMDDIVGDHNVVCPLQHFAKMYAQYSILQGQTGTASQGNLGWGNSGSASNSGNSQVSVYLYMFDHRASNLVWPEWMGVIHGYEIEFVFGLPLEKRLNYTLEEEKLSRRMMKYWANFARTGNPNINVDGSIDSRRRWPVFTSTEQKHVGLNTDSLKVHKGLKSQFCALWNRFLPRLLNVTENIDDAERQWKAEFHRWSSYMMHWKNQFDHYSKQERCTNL
Description: The enzyme was Electric eel AChE (EeAChE type VI-S, lyophilized powder, Sigma-Aldrich). We selected this source of AChE for consistency with our other reports and because of the purity, specific activity, and lower cost compared to human AChE.
The assay is based on the high level of fluorescence intensity of propidium iodide bound with AChE decreasing in the presence of test compounds that competitively displace propidium iodide from the AChE PAS [25, 27]. Specificially, EeAChE ([…] final concentration) is incubated with the test compound (20 μM in 1 mM Tris-HCl buffer pH 8.0, 25 °C, for 15 min). Propidium iodide (final concentration 8 μM) is then added for a further 15-min incubation and the fluorescence spectrum is taken (530 nm (excitation) and 600 nm (emission)). The same concentration of propidium iodide in the Tris-HCI buffer was used as the blank. Triplicate determinations were recorded from a FLUOStar Optima microplate reader and results calculated via the following equation:% Displacement = 100 − (IFAChE+ Propidium + inhibitor/IFAChE + Propidium) × 100(1) where IFAChE + Propidium = fluorescence intensity of propidium iodide associated with AChE in the absence of the test compound (taken as 100%), and IFAChE + Propidium + inhibitor = fluorescence intensity of propidium iodide associated with AChE in the presence of the test compound.

[6] = biological target: T3, equine serum BChE (Equus caballus, UniProt P81908); experiment: biochemical; conditions: n = 3
T3 construct: we used human erythrocyte AChE, equine serum BChE, and porcine liver CES; purchased Sigma-Aldrich; host or cells: equine serum
T3 sequence (P81908 whole entry): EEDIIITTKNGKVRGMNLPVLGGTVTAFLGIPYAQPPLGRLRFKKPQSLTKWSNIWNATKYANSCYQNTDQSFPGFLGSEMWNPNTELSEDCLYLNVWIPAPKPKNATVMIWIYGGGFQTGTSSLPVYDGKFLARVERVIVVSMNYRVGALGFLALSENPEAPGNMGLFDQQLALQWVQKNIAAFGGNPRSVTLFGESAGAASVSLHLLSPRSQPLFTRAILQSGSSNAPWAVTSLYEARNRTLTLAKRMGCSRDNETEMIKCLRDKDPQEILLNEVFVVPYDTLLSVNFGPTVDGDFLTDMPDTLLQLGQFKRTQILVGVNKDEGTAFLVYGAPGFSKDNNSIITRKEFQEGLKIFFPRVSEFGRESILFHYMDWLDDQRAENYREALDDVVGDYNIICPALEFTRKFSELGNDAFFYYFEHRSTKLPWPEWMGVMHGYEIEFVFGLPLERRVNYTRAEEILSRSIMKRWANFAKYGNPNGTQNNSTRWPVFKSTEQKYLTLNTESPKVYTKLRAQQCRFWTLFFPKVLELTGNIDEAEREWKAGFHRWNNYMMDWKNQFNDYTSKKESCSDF

[7] = biological target: β-amyloid (1–42) (Aβ42) (Homo sapiens, UniProt P05067); experiment: Inhibition of Aβ42 self-aggregation, Thioflavin T fluorescence; format: biochemical; conditions: Aβ42 50 µM, compound 100 µM
Chain of β-amyloid (1–42) (Aβ42) (P05067 672-713): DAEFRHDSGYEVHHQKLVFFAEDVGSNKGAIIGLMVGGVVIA
Description: The inhibitory effect of the test compounds toward Aβ42 self-aggregation was determined using the Thioflavin T (ThT) fluorescence method with minor modifications. […] Therefore, the decrease in ThT fluorescence correlates with the activity of studied compounds to inhibit the formation of amyloid aggregates.
A total of 1 mg of lyophilized HFIP-pretreated Aβ42 from rPeptide (Watkinsville, GA, USA) was dissolved in DMSO to obtain a stable initial solution ([Aβ42] = 500 μM), then it was aliquoted and stored at −20 °C.
Then, the samples were incubated for 24 h at 37 °C without stirring in the absence (base level of Aβ42 self-aggregation, control) or presence of the test compounds. Myricetin and propidium iodide were used as references (positive controls). All compounds were used at a concentration of 100 µM. […] Analyses were performed with a FLUOStar Optima microplate reader (LabTech, Ortenberg, Germany). […] Each assay was run in triplicate.

[8] = biological target: T4, AChE (Homo sapiens, UniProt P22303); experiment: Kinetic study of AChE inhibition (Lineweaver-Burk); format: biochemical; conditions: for type of AChE inhibition: Lineweaver–Burk plots; for Ki: read-out: Ki, the competitive component, AChE
T4 construct: we used human erythrocyte AChE, equine serum BChE, and porcine liver CES; purchased Sigma-Aldrich; host or cells: human erythrocytes
T4 sequence (P22303 other isoform, or with tags, fused parts or gaps): as the sequence (P22303 other isoform, or with tags, fused parts or gaps) above
Description: (§1) We assessed the mechanisms of AChE and BChE inhibition by performing a thorough analysis of enzyme kinetics. After a 5 min incubation at 25 °C (for temperature equilibration) with three increasing concentrations of inhibitor and six decreasing substrate concentrations, the residual enzyme activity was measured as described above for enzymatic assays.

[9] = biological target: T5, BChE (Equus caballus, UniProt P81908); experiment: Kinetic study of BChE inhibition (Lineweaver-Burk); format: biochemical; conditions: for type of BChE inhibition: Lineweaver–Burk plots; for Ki: competitive component; for αKi, BChE: non-competitive component
T5 construct: we used human erythrocyte AChE, equine serum BChE, and porcine liver CES; purchased Sigma-Aldrich; host or cells: equine serum
T5 sequence (P81908 whole entry): as the sequence (P81908 whole entry) above
Description: as §1

[10] = biological target: T1, human erythrocyte AChE; conditions: 5d (m = 5) relative to 5a (m = 2)
[11] = mean ± SEM, read-out: Equine Serum BChE, IC50

| Structure (SMILES) | FRAP, TE [1] | IC50 [2] | ABTS•+-Scavenging Activity, TEAC [2] | Porcine Liver CES, (%) inhibition [3] | IC50 [4] | Displacement of Propidium from EeAChE PAS [5] | IC50 [6, 11] | inhibition at 100 µM [7] | IC50 ([6]; MEAN ± SEM, read-out: IC50 for BChE inhibition (Figure S25)) | αKi, the non-competitive component, AChE [8] | type of AChE inhibition [8] | Ki [8] | type of BChE inhibition [9] | Ki [9] | αKi, BChE [9] | Inhibition of Aβ42 Self-Aggregation [7] | enhancement of anti-AChE activity, fold [10] |
| --- | --- | --- | --- | --- | --- | --- | --- | --- | --- | --- | --- | --- | --- | --- | --- | --- | --- |
| Cc1c(C)c2c(c(C)c1O)CCC(C)(C(=O)O)O2 (stereo not shown) [Trolox, 6-hydroxy-2,5,7,8-tetramethylchroman-2-carboxylic acid, reference compound] | 1.0 | 20 µM and 20.1 µM | 1.0 | – | – | – | – | – | – | – | – | – | – | – | – | – | – |
| S=C(NCCCCNC(=S)Nc1c2c(nc3c1CCC3)CCCC2)Nc1c2c(nc3c1CCC3)CCCC2 [Compound 5c] | 0.35 ± 0.02 | 9.7 ± 0.6 µM | 1.8 ± 0.05 | 9.6 ± 0.8% | 7.53 ± 0.59 µM | 10.0 ± 0.8% | 0.802 ± 0.081 µM | 17.2 ± 1.5% | – | – | – | – | – | – | – | – | – |
| S=C(NCCCNC(=S)Nc1c2c(nc3c1CCC3)CCCC2)Nc1c2c(nc3c1CCC3)CCCC2 [Compound 5b] | 0.50 ± 0.03 | 9.9 ± 0.5 µM | 1.9 ± 0.08 | 4.2 ± 0.5% | 10.9 ± 1 µM | 9.3 ± 0.8% | 0.689 ± 0.025 µM | 1.6 ± 0.1% | – | – | – | – | – | – | – | – | – |
| S=C(NCCNC(=S)Nc1c2c(nc3c1CCC3)CCCC2)Nc1c2c(nc3c1CCC3)CCCC2 [Compound 5a, 2,2′-Ethane-1,2-diylbis[N-(2,3,5,6,7,8-hexahydro-1H-cyclopenta[b]quinolin-9-yl)(thiourea)]] | 0.52 ± 0.04 | 7.6 ± 0.4 µM | 2.1 ± 0.07 | 4.3 ± 0.2% | 96 ± 3.7 µM | 7.6 ± 0.6% | 4.08 ± 0.23 µM | 2.9 ± 0.2% | – | – | – | – | – | – | – | – | – |
| O=C(CNCCCCNCC(=O)Nc1c2c(nc3c1CCC3)CCCC2)Nc1c2c(nc3c1CCC3)CCCC2 [Compound 3c] | – | ~200 µM | 0.10 ± 0.005 | 0.8 ± 0.2% | 1.46 ± 0.03 µM | 17.7 ± 1.4% | 0.067 ± 0.001 µM | – | 0.0696 µM | – | – | – | – | – | – | – | – |
| S=C(NCCCCCCCNC(=S)Nc1c2c(nc3c1CCC3)CCCC2)Nc1c2c(nc3c1CCC3)CCCC2 [Compound 5f] | 0.55 ± 0.01 | 12.4 ± 0.8 µM | 1.2 ± 0.05 | 5.8 ± 0.3% | 6.28 ± 0.46 µM | 2.5 ± 0.2% | 1.18 ± 0.08 µM | 3.7 ± 0.3% | – | – | – | – | – | – | – | – | – |
| O=C(CNCCCNCC(=O)Nc1c2c(nc3c1CCC3)CCCC2)Nc1c2c(nc3c1CCC3)CCCC2 [Compound 3b] | 0.05 ± 0.01 | > 200 µM | 0.05 ± 0.003 | 4.4 ± 0.5% | 2.91 ± 0.74 µM | 14.7 ± 1.2% | 0.128 ± 0.002 µM | – | – | – | – | – | – | – | – | – | – |
| O=C(CNCCNCC(=O)Nc1c2c(nc3c1CCC3)CCCC2)Nc1c2c(nc3c1CCC3)CCCC2 [Compound 3a] | – | ~180 µM | 0.10 ± 0.004 | 4.8 ± 0.4% | 1.64 ± 0.08 µM | 14.4 ± 1.2% | 0.11 ± 0.004 µM | – | – | 2.62 ± 0.13 µM | mixed-type inhibition | 0.772 ± 0.047 µM | mixed-type inhibition | 0.0578 ± 0.0025 µM | 0.189 ± 0.007 µM | – | – |
| O=C(CNCCCCCCCCNCC(=O)Nc1c2c(nc3c1CCC3)CCCC2)Nc1c2c(nc3c1CCC3)CCCC2 [Compound 3e] | 0.05 ± 0.01 | > 200 µM | 0.04 ± 0.002 | 5.1 ± 0.9% | 11.7 ± 1.1 µM | 13.2 ± 1.0% | 6.65 ± 0.5 µM | – | – | – | – | – | – | – | – | – | – |
| CC[N+](C)(CC)CCC[n+]1c(-c2ccccc2)c2cc(N)ccc2c2ccc(N)cc21.[I-].[I-] [Propidium iodide, reference compound] | – | – | – | – | – | – | – | – | – | – | – | – | – | – | – | 90.7 ± 7.1% | – |
| S=C(NCCCCCCNC(=S)Nc1c2c(nc3c1CCC3)CCCC2)Nc1c2c(nc3c1CCC3)CCCC2 [Compound 5e] | 0.49 ± 0.01 | 10.9 ± 0.7 µM | 1.5 ± 0.07 | 10.3 ± 1.0% | 4.08 ± 0.46 µM | 11.1 ± 0.9% | 0.769 ± 0.02 µM | 14.3 ± 1.1% | – | – | – | – | – | – | – | – | – |
| O=C(CNCCCCCCNCC(=O)Nc1c2c(nc3c1CCC3)CCCC2)Nc1c2c(nc3c1CCC3)CCCC2 [Compound 3d] | – | – | – | 6.0 ± 0.6% | 1.39 ± 0.1 µM | 11.2 ± 0.8% | 1.11 ± 0.04 µM | – | – | – | – | – | – | – | – | – | – |
| Nc1c2c(nc3c1CCC3)CCCC2 [Amiridine] | – | – | 0.04 ± 0.003 | – | – | – | – | – | – | – | – | – | – | – | – | – | – |
| S=C(NCCCCCNC(=S)Nc1c2c(nc3c1CCC3)CCCC2)Nc1c2c(nc3c1CCC3)CCCC2 [Compound 5d] | 0.45 ± 0.03 | 10.9 ± 0.7 µM | 1.6 ± 0.06 | 12.8 ± 1.1% | 4.01 ± 0.13 µM | 11.2 ± 1.0% | 0.76 µM and 0.758 µM | 12.8 ± 1.1% | – | 7.75 ± 0.11 µM | mixed-type inhibition | 1.18 ± 0.08 µM | mixed-type inhibition | 0.34 ± 0.012 µM | 1.85 ± 0.06 µM | – | 24 fold |
| O=[N+]([O-])c1ccc(OP(=O)(O)Oc2ccc([N+](=O)[O-])cc2)cc1 [BNPP, bis-4-nitrophenyl phosphate, reference compound] | – | – | – | 99.1 ± 0.93 ^3% | – | – | – | – | – | – | – | – | – | – | – | – | – |
| S=C(NCCCCCCCCNC(=S)Nc1c2c(nc3c1CCC3)CCCC2)Nc1c2c(nc3c1CCC3)CCCC2 [Compound 5g] | 0.85 ± 0.03 | 10.8 ± 0.6 µM | 1.5 ± 0.07 | 15.9 ± 1.5% | 26.6 ± 0.6 µM | 2.2 ± 0.2% | 1.45 ± 0.09 µM | 5.2 ± 0.4% | – | – | – | – | – | – | – | – | – |
